These molecules were tested against T1, Nav1.7 (or SCN9A) channel; HEK cells stably transfected with hSCN9A (Homo sapiens, UniProt Q15858) (assay: Nav1.7 block, PatchXpress 7000 automated whole-cell voltage clamp, estimated IC50 (EIC50)). Settings: estimated IC50; hSCN9A HEK cells, PatchXpress platform; Examples 815-1040.
T1 construct: expressed in transfected cells
T1 sequence (Q15858 whole entry): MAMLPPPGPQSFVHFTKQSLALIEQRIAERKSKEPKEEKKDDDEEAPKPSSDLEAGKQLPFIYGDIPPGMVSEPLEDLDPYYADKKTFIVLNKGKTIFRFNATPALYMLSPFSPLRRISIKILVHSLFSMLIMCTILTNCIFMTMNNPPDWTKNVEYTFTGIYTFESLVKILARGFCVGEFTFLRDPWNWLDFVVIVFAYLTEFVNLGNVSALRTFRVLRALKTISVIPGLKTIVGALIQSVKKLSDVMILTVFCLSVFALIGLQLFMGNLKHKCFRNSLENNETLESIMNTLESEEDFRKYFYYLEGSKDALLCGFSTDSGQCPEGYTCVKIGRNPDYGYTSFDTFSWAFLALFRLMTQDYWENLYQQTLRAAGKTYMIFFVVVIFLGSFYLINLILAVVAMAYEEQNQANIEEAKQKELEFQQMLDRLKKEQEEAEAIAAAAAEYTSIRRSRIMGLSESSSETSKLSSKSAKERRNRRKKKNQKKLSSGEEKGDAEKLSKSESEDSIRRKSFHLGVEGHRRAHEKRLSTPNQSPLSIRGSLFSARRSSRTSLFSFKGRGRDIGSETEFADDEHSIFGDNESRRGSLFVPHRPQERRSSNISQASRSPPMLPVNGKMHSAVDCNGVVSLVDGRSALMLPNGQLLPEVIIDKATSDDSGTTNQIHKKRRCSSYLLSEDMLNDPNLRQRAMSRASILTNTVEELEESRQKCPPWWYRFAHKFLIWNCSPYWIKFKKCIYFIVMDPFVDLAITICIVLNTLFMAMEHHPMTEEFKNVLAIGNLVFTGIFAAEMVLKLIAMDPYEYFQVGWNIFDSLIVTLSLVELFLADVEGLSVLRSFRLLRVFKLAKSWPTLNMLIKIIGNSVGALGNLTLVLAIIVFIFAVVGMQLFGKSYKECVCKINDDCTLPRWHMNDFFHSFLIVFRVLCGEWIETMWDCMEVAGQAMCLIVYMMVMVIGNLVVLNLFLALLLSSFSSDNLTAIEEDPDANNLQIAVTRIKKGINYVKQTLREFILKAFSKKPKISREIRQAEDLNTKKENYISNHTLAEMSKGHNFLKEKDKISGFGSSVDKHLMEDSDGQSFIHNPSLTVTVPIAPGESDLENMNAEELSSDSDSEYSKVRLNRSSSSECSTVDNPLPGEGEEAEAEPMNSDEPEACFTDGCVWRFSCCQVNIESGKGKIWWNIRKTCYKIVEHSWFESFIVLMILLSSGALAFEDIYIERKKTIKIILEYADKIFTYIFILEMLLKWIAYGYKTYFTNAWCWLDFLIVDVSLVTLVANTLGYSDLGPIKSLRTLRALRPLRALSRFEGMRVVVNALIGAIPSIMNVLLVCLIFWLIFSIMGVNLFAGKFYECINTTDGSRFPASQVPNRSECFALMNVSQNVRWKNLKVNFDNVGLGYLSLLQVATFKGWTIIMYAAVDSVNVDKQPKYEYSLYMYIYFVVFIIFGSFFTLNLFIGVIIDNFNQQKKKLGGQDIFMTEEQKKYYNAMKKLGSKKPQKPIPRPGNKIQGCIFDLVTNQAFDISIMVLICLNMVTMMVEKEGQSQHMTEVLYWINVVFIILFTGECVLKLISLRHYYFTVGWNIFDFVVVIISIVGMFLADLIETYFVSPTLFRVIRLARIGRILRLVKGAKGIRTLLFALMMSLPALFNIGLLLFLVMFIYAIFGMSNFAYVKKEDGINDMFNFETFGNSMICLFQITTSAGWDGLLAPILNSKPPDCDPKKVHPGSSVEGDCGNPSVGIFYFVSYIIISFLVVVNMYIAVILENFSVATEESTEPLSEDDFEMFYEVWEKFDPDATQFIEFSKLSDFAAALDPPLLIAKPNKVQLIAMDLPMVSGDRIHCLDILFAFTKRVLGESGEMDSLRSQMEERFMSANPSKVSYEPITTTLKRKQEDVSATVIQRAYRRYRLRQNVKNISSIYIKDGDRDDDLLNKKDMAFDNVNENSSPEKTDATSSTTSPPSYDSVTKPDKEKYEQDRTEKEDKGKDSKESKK
Type: cell-based
Molecule `Cn1nccc1-c1cc(Cl)ccc1Oc1ccc(S(=O)(=O)Nc2ncccn2)cc1C#N` [Example 881, 4-[4-chloro-2-(1-methyl-1H-pyrazol-5-yl)phenoxy]-3-cyano-N-pyrimidin-2-ylbenzenesulfonamide] has an IC50 of 260 nM.
For `N#Cc1cc(S(=O)(=O)Nc2ncns2)ccc1Oc1ccc(Cl)cc1-c1ccnn1C1CCOC1` (centres unmarked) [Example 882, 4-{4-chloro-2-[1-(tetrahydrofuran-3-yl)-1H-pyrazol-5-yl]phenoxy}-3-cyano-N-1,2,4-thiadiazol-5-ylbenzenesulfonamide], the IC50 was 40 nM.
With `Cc1cc(NS(=O)(=O)c2ccc(Oc3ccc(Cl)cc3-c3ccnn3C)c(C#N)c2)no1` [Example 883, 4-[4-chloro-2-(1-methyl-1H-pyrazol-5-yl)phenoxy]-3-cyano-N-(5-methylisoxazol-3-yl)benzenesulfonamide] the IC50 was 14000 nM.
With `CN1CC(n2nccc2-c2cc(Cl)ccc2Oc2cc(F)c(S(=O)(=O)Nc3nncs3)cc2Cl)C1` [Example 884, 5-chloro-4-{4-chloro-2-[1-(1-methylazetidin-3-yl)-1H-pyrazol-5-yl]phenoxy}-2-fluoro-N-1,3,4-thiadiazol-2-ylbenzenesulfonamide] the IC50 was 36 nM.
With `Cn1nccc1-c1cc(Cl)ccc1Oc1ccc(S(=O)(=O)Nc2cnccn2)cc1C#N` [Example 885, 4-[4-chloro-2-(1-methyl-1H-pyrazol-5-yl)phenoxy]-3-cyano-N-pyrazin-2-ylbenzenesulfonamide] the IC50 was 6300 nM.
`CCOc1nnc(NS(=O)(=O)c2ccc(Oc3ccc(Cl)cc3-c3ccnn3C)c(C#N)c2)s1` [Example 886, 4-[4-chloro-2-(1-methyl-1H-pyrazol-5-yl)phenoxy]-3-cyano-N-(5-ethoxy-1,3,4-thiadiazol-2-yl)benzenesulfonamide] was tested, and the IC50 was 6200 nM.
With `Cn1ccc(NS(=O)(=O)c2ccc(Oc3ccc(Cl)cc3-c3ccnn3C)c(C#N)c2)n1` [Example 887, 4-[4-chloro-2-(1-methyl-1H-pyrazol-5-yl)phenoxy]-3-cyano-N-(1-methyl-1H-pyrazol-3-yl)benzenesulfonamide] the IC50 was 9000 nM.
In the case of `Cc1nnc(NS(=O)(=O)c2ccc(Oc3ccc(Cl)cc3-c3ccnn3C)c(C#N)c2)s1` [Example 888, 4-[4-chloro-2-(1-methyl-1H-pyrazol-5-yl)phenoxy]-3-cyano-N-(5-methyl-1,3,4-thiadiazol-2-yl)benzenesulfonamide], the IC50 is reported as 920 nM.
Molecule `N#Cc1cc(S(=O)(=O)Nc2ncns2)ccc1Oc1ccc(F)cc1-c1cocn1` [Example 889, 3-cyano-4-[4-fluoro-2-(1,3-oxazol-4-yl)phenoxy]-N-1,2,4-thiadiazol-5-ylbenzenesulfonamide] has an IC50 of 670 nM.
Molecule `CSc1nnc(NS(=O)(=O)c2ccc(Oc3ccc(Cl)cc3-c3ccnn3C)c(C#N)c2)s1` [Example 891, 4-[4-chloro-2-(1-methyl-1H-pyrazol-5-yl)phenoxy]-3-cyano-N-[5-(methylthio)-1,3,4-thiadiazol-2-yl]benzenesulfonamide] has an IC50 of 780 nM.
In the case of `Cc1cnc(NS(=O)(=O)c2ccc(Oc3ccc(Cl)cc3-c3ccnn3C)c(C#N)c2)cn1` [Example 892, 4-[4-chloro-2-(1-methyl-1H-pyrazol-5-yl)phenoxy]-3-cyano-N-(5-methylpyrazin-2-yl)benzenesulfonamide], the IC50 is reported as over 10000 nM.
For `CSc1nc(NS(=O)(=O)c2ccc(Oc3ccc(Cl)cc3-c3ccnn3C)c(C#N)c2)ns1` [Example 893, 4-[4-chloro-2-(1-methyl-1H-pyrazol-5-yl)phenoxy]-3-cyano-N-[5-(methylthio)-1,2,4-thiadiazol-3-yl]benzenesulfonamide], the IC50 was 3800 nM.
`Cn1nccc1NS(=O)(=O)c1ccc(Oc2ccc(Cl)cc2-c2ccnn2C)c(C#N)c1` [Example 894, 4-[4-chloro-2-(1-methyl-1H-pyrazol-5-yl)phenoxy]-3-cyano-N-(1-methyl-1H-pyrazol-5-yl)benzenesulfonamide] gave an IC50 of over 10000 nM.
`Cn1nccc1-c1cc(Cl)ccc1Oc1ccc(S(=O)(=O)Nc2cncnc2)cc1C#N` [Example 895, 4-[4-chloro-2-(1-methyl-1H-pyrazol-5-yl)phenoxy]-3-cyano-N-pyrimidin-5-ylbenzenesulfonamide] was tested, and the IC50 was over 30000 nM.
With `N#Cc1cc(S(=O)(=O)Nc2ncns2)ccc1Oc1ccc(Cl)cc1-c1cc(N2CCOCC2)ncn1` [Example 896, 4-[4-chloro-2-(6-morpholin-4-ylpyrimidin-4-yl)phenoxy]-3-cyano-N-1,2,4-thiadiazol-5-ylbenzenesulfonamide] the IC50 was 340 nM.
`O=S(=O)(Nc1ncns1)c1cc(F)c(Oc2ccc(OC(F)(F)F)cc2-c2ccnnc2)cc1F` [Example 897, 2,5-difluoro-4-[2-pyridazin-4-yl-4-(trifluoromethoxy)phenoxy]-N-1,2,4-thiadiazol-5-ylbenzenesulfonamide] was tested, and the IC50 was 5.8 nM.
Molecule `O=S(=O)(Nc1ncns1)c1ccc(Oc2ccc(Cl)cc2-c2ccnnc2)c(Cl)c1` [Example 898, 3-chloro-4-(4-chloro-2-pyridazin-4-ylphenoxy)-N-1,2,4-thiadiazol-5-ylbenzenesulfonamide] has an IC50 of 5.1 nM.
In the case of `N#Cc1cc(S(=O)(=O)Nc2nncs2)ccc1Oc1ccc(Cl)cc1-c1ccnc(N2CCOCC2)c1` [Example 899, 4-[4-chloro-2-(2-morpholin-4-ylpyridin-4-yl)phenoxy]-3-cyano-N-1,3,4-thiadiazol-2-ylbenzenesulfonamide], the IC50 is reported as 18 nM.
`O=S(=O)(Nc1ncns1)c1ccc(Oc2ccc(OC(F)(F)F)cc2-c2ccnnc2)c(Cl)c1` [Example 900, 3-chloro-4-[2-pyridazin-4-yl-4-(trifluoromethoxy)phenoxy]-N-1,2,4-thiadiazol-5-ylbenzenesulfonamide] gave an IC50 of 2.8 nM.
`N#Cc1cc(S(=O)(=O)Nc2ncns2)ccc1Oc1ccc(Cl)cc1-c1ccnc(NC2CCC2)c1` [Example 902, 4-{4-chloro-2-[2-(cyclobutylamino)pyridin-4-yl]phenoxy}-3-cyano-N-1,2,4-thiadiazol-5-ylbenzenesulfonamide] gave an IC50 of 2.3 nM.
Molecule `O=S(=O)(Nc1ncns1)c1cc(F)c(Oc2ccc(C(F)(F)F)cc2-c2ccc(Cl)nn2)cc1F` [Example 904, 4-[2-(6-chloropyridazin-3-yl)-4-(trifluoromethyl)phenoxy]-2,5-difluoro-N-1,2,4-thiadiazol-5-ylbenzenesulfonamide] has an IC50 of 390 nM.
Work on `N#Cc1cc(S(=O)(=O)Nc2ncns2)ccc1Oc1ccc(Cl)cc1-c1ccsn1` [Example 905, 4-(4-chloro-2-isothiazol-3-ylphenoxy)-3-cyano-N-1,2,4-thiadiazol-5-ylbenzenesulfonamide] yielded an IC50 of 190 nM.
In the case of `N#Cc1cc(S(=O)(=O)Nc2ncns2)ccc1Oc1ccc(Cl)cc1C1CNC1` [Example 906, 4-(2-azetidin-3-yl-4-chlorophenoxy)-3-cyano-N-1,2,4-thiadiazol-5-ylbenzenesulfonamide], the IC50 is reported as 57 nM.
`Cc1nonc1NS(=O)(=O)c1ccc(Oc2ccc(Cl)cc2-c2ccnn2C)c(C#N)c1` [Example 907, 4-[4-chloro-2-(1-methyl-1H-pyrazol-5-yl)phenoxy]-3-cyano-N-(4-methyl-1,2,5-oxadiazol-3-yl)benzenesulfonamide] was tested, and the IC50 was over 10000 nM.
With `Cn1cc(-c2cc(Cl)ccc2Oc2ccc(S(=O)(=O)Nc3ncns3)cc2C#N)ccc1=O` [Example 908, 4-[4-chloro-2-(1-methyl-6-oxo-1,6-dihydropyridin-3-yl)phenoxy]-3-cyano-N-1,2,4-thiadiazol-5-ylbenzenesulfonamide] the IC50 was 780 nM.
For `O=S(=O)(Nc1ncns1)c1cc(Cl)c(Oc2ccc(OC(F)(F)F)cc2-c2ccnnc2)cc1F` [Example 909, 5-chloro-2-fluoro-4-[2-pyridazin-4-yl-4-(trifluoromethoxy)phenoxy]-N-1,2,4-thiadiazol-5-ylbenzenesulfonamide], the IC50 was 2.1 nM.
With `O=S(=O)(Nc1ncns1)c1cc(Cl)c(Oc2ccc(Cl)cc2-c2ccnnc2)cc1F` [Example 910, 5-chloro-4-(4-chloro-2-pyridazin-4-ylphenoxy)-2-fluoro-N-1,2,4-thiadiazol-5-ylbenzenesulfonamide] the IC50 was 12 nM.
Work on `O=S(=O)(Nc1cscn1)c1ccc(Oc2ccc(Cl)cc2-c2ccn[nH]2)c(Cl)c1` [Example 911, 3-chloro-4-[4-chloro-2-(1H-pyrazol-5-yl)phenoxy]-N-1,3-thiazol-4-ylbenzenesulfonamide] yielded an IC50 of 170 nM.
Molecule `Nc1[nH]ncc1-c1cc(Cl)ccc1Oc1ccc(S(=O)(=O)Nc2cscn2)cc1Cl` [Example 912, 4-[2-(5-amino-1H-pyrazol-4-yl)-4-chlorophenoxy]-3-chloro-N-1,3-thiazol-4-ylbenzenesulfonamide] has an IC50 of 14 nM.
For `Nc1[nH]ncc1-c1cc(Cl)ccc1Oc1ccc(S(=O)(=O)Nc2ncns2)cc1Cl` [Example 913, 4-[2-(5-amino-1H-pyrazol-4-yl)-4-chlorophenoxy]-3-chloro-N-1,2,4-thiadiazol-5-ylbenzenesulfonamide], the IC50 was 0.9 nM.
With `Cc1cnncc1-c1cc(Cl)ccc1Oc1ccc(S(=O)(=O)Nc2ncns2)cc1C#N` [Example 914, 4-[4-chloro-2-(5-methylpyridazin-4-yl)phenoxy]-3-cyano-N-1,2,4-thiadiazol-5-ylbenzenesulfonamide] the IC50 was 180 nM.
With `Cn1nccc1-c1cc(Cl)ccc1Oc1ccc(S(=O)(=O)Nc2cccnn2)cc1C#N` [Example 915, 4-[4-chloro-2-(1-methyl-1H-pyrazol-5-yl)phenoxy]-3-cyano-N-pyridazin-3-ylbenzenesulfonamide] the IC50 was 1600 nM.
Work on `COc1nccnc1NS(=O)(=O)c1ccc(Oc2ccc(Cl)cc2-c2ccnn2C)c(C#N)c1` [Example 916, 4-[4-chloro-2-(1-methyl-1H-pyrazol-5-yl)phenoxy]-3-cyano-N-(3-methoxypyrazin-2-yl)benzenesulfonamide] yielded an IC50 of over 10000 nM.
`O=S(=O)(Nc1nncs1)c1cc(F)c(Oc2ccc(C(F)(F)F)cc2-c2ccnnc2)cc1F` [Example 917, 2,5-difluoro-4-[2-pyridazin-4-yl-4-(trifluoromethyl)phenoxy]-N-1,3,4-thiadiazol-2-ylbenzenesulfonamide] gave an IC50 of 240 nM.
`Nc1cc(-c2cc(Cl)ccc2Oc2cc(F)c(S(=O)(=O)Nc3cnccn3)cc2Cl)ccn1` [Example 918, 4-[2-(2-aminopyridin-4-yl)-4-chlorophenoxy]-5-chloro-2-fluoro-N-pyrazin-2-ylbenzenesulfonamide] gave an IC50 of 140 nM.
